{"source": "a melting point compilation (Tetko et al.; mined from patent text by program, amines drawn as free bases though some values may be those of a salt)"}
{"units": {"melting point": "°C"}}
{"compound": "CC1(C)CON(Cc2ccc(N3C(=O)c4ccccc4C3=O)cc2Cl)C1=O", "melting point": "141 to 145"}
{"compound": "CC(C)=CCOc1ccc(C(=O)C=Cc2ccc(C)cc2)c(O)c1", "melting point": "108 to 109"}
{"compound": "COc1cc2c(cc1OC)[C@@H]1CCCC[C@@H]1N=C2c1ccc(C(=O)OCC2CC2)cc1", "note": "(racemic)", "melting point": "147 to 148"}
{"compound": "O=C(Nc1cccc(Cl)c1)ONC1=Nc2ccc([N+](=O)[O-])cc2C(c2ccccc2Cl)=NC1", "melting point": "130 to 135"}
{"compound": "COC(=O)Nc1ccc(OCc2nc3ccccc3s2)cc1", "melting point": "142 to 144"}
{"compound": "COc1cc2c(cc1Nc1ncc(Cl)c(N[C@@H]3CCCC[C@H]3NS(C)(=O)=O)n1)CCOC(=O)N2C", "melting point": "160 to 162"}
{"compound": "CC(C)Nc1cccnc1N1CCN(C(=O)c2ccc(C(=O)N(C)CC3OCCO3)cc2)CC1", "melting point": "102 to 104"}
{"compound": "O=C(C1CCCCC1)C1CCN(Cc2cc(O)c(O)cc2[N+](=O)[O-])CC1", "melting point": 240}
{"compound": "CS(=O)(=O)C(=C1CN(C(c2ccccc2)c2ccccc2)C1)c1cc(F)cc(F)c1", "melting point": 172}
{"compound": "CCCCCn1c2ccccc2c2cc(C(=O)NCC(C)(C)C)ncc21", "melting point": "91 to 92"}
{"compound": "CC(=O)N1CCC(Nc2ncc3cc(-c4ccccc4C)c(=O)n(C4CCOCC4)c3n2)CC1", "melting point": "235 to 237"}
{"compound": "COC(=O)C(=O)c1ccccc1F", "melting point": "98 to 100"}
{"compound": "O=C1c2cc(O)ccc2OCC1Cc1ccccn1", "note": "(stereo not given)", "melting point": "150 to 151"}
{"compound": "CC(C)(C)OC(=O)N=C(N)N(Cc1ccc(OCCC2Oc3cc([N+](=O)[O-])ccc3N(Cc3cccc(Cl)c3)C2=O)cc1)C(=O)OC(C)(C)C", "note": "(stereo not given)", "melting point": 67.5}
{"compound": "CC(C)(C)OC(=O)NCCNC(=O)c1n[nH]cc1-c1cccc(F)c1", "melting point": "175 to 176"}
{"compound": "Cc1sc(C2=NOC(c3cc(Cl)cc(Cl)c3)(C(F)(F)F)C2)cc1C(=O)NCC(=O)NCC#N", "note": "(stereo not given)", "melting point": "158 to 161"}
{"compound": "CCCCC/C=C\\C/C=C\\CCCCCCCC(=O)Nc1cccc(N(CC(=O)O)CC(=O)O)c1", "melting point": "135 to 140"}
{"compound": "O=C1NCCC[C@@H]1NS(=O)(=O)c1cc(F)cc(F)c1", "melting point": "170 to 174"}
{"compound": "Cc1oc(-c2cccc(CCc3ccccc3)c2)nc1CCOc1ccc(OC(C)(C)C(=O)O)cc1", "melting point": "124 to 125"}
{"compound": "CCCSc1sc(C(=O)N2CCCC2)c2c1-c1oncc1C(C)(C)C2", "melting point": "72 to 76"}
{"compound": "COc1ccc(Nc2nc(NC3CC3)nc(NC3CC3)n2)cc1F", "melting point": "91 to 92"}
{"compound": "CC1CNc2c([N+](=O)[O-])cnn2C1", "note": "(stereo not given)", "melting point": "190 to 192"}
{"compound": "O=c1cccccc1N1CCN(Cc2ccccc2)CC1", "melting point": "78 to 80"}
{"compound": "COC(=O)c1nc(N)ccc1Oc1nc(OC)cc(OC)n1", "melting point": "67 to 69"}
{"compound": "Cc1c(C)c(-c2cccc(CO)c2)c(C)c(C)c1OCCCS(C)(=O)=O", "melting point": "132 to 134"}
{"compound": "CCN(CC)Cc1nc(-c2ncn3c2[C@@H]2CCCN2C(=O)c2c(Cl)cccc2-3)no1", "melting point": "151 to 153"}
{"compound": "O=C(O)c1cccc(-n2c(-c3ccccc3)cc3c2CCCC3)c1", "melting point": "191 to 193"}
{"compound": "CCOC(=O)C=C(c1ccc(Cl)cc1)c1ccc(Cl)cc1", "melting point": "54 to 56"}
{"compound": "COc1ccc(N=C(C#CSc2ccccc2)N2CCN(C)CC2)cc1", "melting point": 160}
{"compound": "Cc1c(Br)c(Br)c(C)c(Br)c1Br", "melting point": "247 to 249"}
{"compound": "Cc1ccc(-c2cc(C(F)(F)F)n3cnc(C#N)c3n2)cc1C(F)(F)F", "melting point": 220}
{"compound": "O=C1c2ccccc2S(=O)(=O)N1CS(=O)(=O)c1ccccc1", "melting point": "169 to 171"}
{"compound": "O=C(NO)c1ccc(CNC(=O)c2[nH]c(-c3cccs3)cc2-c2ccc(F)cc2)cc1", "melting point": "214 to 216"}
{"compound": "COc1cc(C(=O)N2CCC(C(=O)C3CCCCC3)CC2)c([N+](=O)[O-])cc1OC", "melting point": "120 to 125"}
{"compound": "COc1cc(CC#N)ccc1OCC#Cc1ccccc1", "melting point": "74 to 75"}
{"compound": "O=[N+]([O-])c1ccc(SNc2nccs2)c(C(Cl)(Cl)Cl)c1", "melting point": 165}
{"compound": "CCCCn1c(-c2ccc(Cl)c(S(=O)(=O)N(C)C)c2)csc1=Nc1ccccc1C", "melting point": 104}
{"compound": "N#Cc1cc(N)ccc1N", "melting point": "85 to 87"}
{"compound": "COc1cc(C=CC(C)=O)ccc1OCC1CO1", "note": "(stereo not given)", "melting point": "123 to 124"}
{"compound": "CCCCCC1=NN(C(=O)NC2C3CC4CC(C3)CC2C4)CC1c1ccccc1", "note": "(stereo not given)", "melting point": 71}
{"compound": "CN(Cc1ncco1)C1CCCN(C(=O)c2ccc(Nc3nccc(Nc4ccc(F)cc4)n3)cc2)C1", "note": "(stereo not given)", "melting point": "155 to 157"}
{"compound": "COC[C@@H](C)n1cc(Cl)nc(N2CCc3cc(Br)cc(Br)c32)c1=O", "melting point": "119 to 120"}
{"compound": "CCCCC(NC(=O)c1ccccc1)C(=O)CN(C)C(=O)N1CCCC1C(=O)O", "note": "(stereo not given)", "melting point": "40 to 80"}
{"compound": "COc1cc(/C=C/C(=O)/C=C/c2cc(OC)c(OCCN=[N+]=[N-])c(OC)c2)cc(OC)c1OCCN=[N+]=[N-]", "melting point": "107 to 109"}
{"compound": "Oc1ccc(-c2cnc3cnc(-c4cccc(O)c4)nc3c2)cc1", "melting point": "> 268"}
{"compound": "CCCCc1nn(CC#N)c(=O)n1Cc1ccc(-c2ccccc2-c2nnn[nH]2)cc1", "melting point": "86 to 88"}
{"compound": "Cc1cc(-c2ccc(Cl)cc2)nn2c(C)nnc12", "melting point": "209 to 212"}
{"compound": "Cc1ccc2c(c1)C(CCCCN1CCN(c3ccc(Cl)cc3)CC1)C(=O)N2", "note": "(stereo not given)", "melting point": "159 to 161"}
{"compound": "Cc1ccc(-c2cc(N3CCC(C(N)=O)CC3)c3ccccc3n2)cc1", "melting point": "230 to 232"}
{"compound": "CS(=O)(=O)c1nccc(-c2nc(=O)c3ccccc3s2)n1", "melting point": 270}
